Laboratory results: the NIST ThermoML archive (doi:10.1021/je800150h)

Test: mn = molality of the nth substance listed, in mol/kg
Conditions: 101 kPa, Liquid; for electrical conductivity: CyberScan CON500 conductivity meter

[Cl-].[Li+] [lithium chloride] + O
Conditions | electrical conductivity [S/m] | mass density [kg/m3] | viscosity [mPa·s]
268.1 K, m1 = 0.5 | – | 1013.4 | 2.273
268.1 K, m1 = 1 | – | 1024.4 | 2.554
268.1 K, m1 = 2 | – | 1047.1 | 2.831
268.1 K, m1 = 3 | – | 1067.8 | 3.191
268.1 K, m1 = 4.5 | – | 1095.9 | 3.649
268.1 K, m1 = 6 | – | 1121.7 | 4.461
268.1 K, m1 = 8 | – | 1155.4 | 6.735
268.1 K, m1 = 11 | – | 1200.2 | 10.85
268.1 K, m1 = 14 | – | 1240.7 | 18.98
268.1 K, m1 = 17.8 | – | 1288.4 | 28.66
273.1 K, m1 = 0.5 | – | 1013.2 | 1.944
273.1 K, m1 = 1 | – | 1024.4 | 2.107
273.1 K, m1 = 2 | – | 1046.9 | 2.37
273.1 K, m1 = 3 | – | 1067.4 | 2.681
273.1 K, m1 = 4.5 | – | 1095 | 3.133
273.1 K, m1 = 6 | – | 1121.2 | 3.815
273.1 K, m1 = 8 | – | 1153.7 | 5.744
273.1 K, m1 = 11 | – | 1198.7 | 9.191
273.1 K, m1 = 14 | – | 1239.1 | 15.82
273.1 K, m1 = 17.8 | – | 1286.4 | 24.99
278.1 K, m1 = 0.5 | 2.61 | – | 1.663
278.1 K, m1 = 1 | 4.64 | 1024 | 1.784
278.1 K, m1 = 2 | 7.64 | 1046.3 | 2
278.1 K, m1 = 3 | 9.59 | 1066.4 | 2.266
278.1 K, m1 = 4.5 | 11.5 | 1094.1 | 2.69
278.1 K, m1 = 6 | 12 | 1119.8 | 3.258
278.1 K, m1 = 8 | 11.5 | 1152.6 | 4.899
278.1 K, m1 = 11 | 9.37 | 1197.1 | 7.784
278.1 K, m1 = 14 | 6.99 | 1237.4 | 13.17
278.1 K, m1 = 17.8 | 4.71 | 1284.2 | 21.79
283.1 K, m1 = 0.5 | 2.99 | 1012.5 | 1.424
283.1 K, m1 = 1 | 5.2 | 1023.3 | 1.518
283.1 K, m1 = 2 | 8.61 | 1045.3 | 1.701
283.1 K, m1 = 3 | 11 | 1065.4 | 1.936
283.1 K, m1 = 4.5 | 13 | 1092.8 | 2.303
283.1 K, m1 = 6 | 13.6 | 1118.8 | 2.777
283.1 K, m1 = 8 | 13.1 | 1151.4 | 4.17
283.1 K, m1 = 11 | 10.7 | 1195.6 | 6.579
283.1 K, m1 = 14 | 8.01 | 1235.8 | 10.97
283.1 K, m1 = 17.8 | 5.52 | 1282.2 | 19.66
288.15 K, m1 = 0.5 | 3.35 | 1011.6 | 1.243
288.15 K, m1 = 1 | 5.87 | 1022.2 | 1.346
288.15 K, m1 = 2 | 9.62 | 1044.1 | 1.502
288.15 K, m1 = 3 | 12.3 | 1064.3 | 1.729
288.15 K, m1 = 4.5 | 14.5 | 1091.5 | 2.034
288.15 K, m1 = 6 | 15.2 | 1117.4 | 2.452
288.15 K, m1 = 8 | 14.6 | 1149.8 | 3.602
288.15 K, m1 = 11 | 12.1 | 1194 | 5.63
288.15 K, m1 = 14 | 9.09 | 1234.1 | 9.142
288.15 K, m1 = 17.8 | 6.45 | 1280.2 | 17.14
293.15 K, m1 = 0.5 | 3.74 | 1010.8 | 1.087
293.15 K, m1 = 1 | 6.53 | 1021.4 | 1.16
293.15 K, m1 = 2 | 10.7 | 1043 | 1.308
293.15 K, m1 = 3 | 13.7 | 1063.1 | 1.495
293.15 K, m1 = 4.5 | 16.1 | 1090.5 | 1.777
293.15 K, m1 = 6 | 16.9 | 1116.1 | 2.131
293.15 K, m1 = 8 | 16.3 | 1148.5 | 3.199
293.15 K, m1 = 11 | 13.6 | 1192.5 | 4.898
293.15 K, m1 = 14 | 10.4 | 1232.6 | 7.966
293.15 K, m1 = 17.8 | 7.44 | 1278.3 | 14.89
298.15 K, m1 = 0.5 | 4.15 | 1009.4 | 0.97
298.15 K, m1 = 1 | 7.29 | – | 1.052
298.15 K, m1 = 2 | 12 | 1041.8 | 1.165
298.15 K, m1 = 3 | 15.2 | 1061.8 | 1.339
298.15 K, m1 = 4.5 | 17.7 | 1089.1 | 1.586
298.15 K, m1 = 6 | 18.7 | 1114.6 | 1.906
298.15 K, m1 = 8 | 17.9 | 1147 | 2.8
298.15 K, m1 = 11 | 15.1 | 1190.9 | 4.292
298.15 K, m1 = 14 | 11.7 | 1230.7 | 6.899
298.15 K, m1 = 17.8 | 8.5 | 1276.4 | 12.68
303.15 K, m1 = 0.5 | 4.58 | 1008.1 | 0.866
303.15 K, m1 = 1 | 8 | 1018.7 | 0.929
303.15 K, m1 = 2 | 13.2 | – | 1.047
303.15 K, m1 = 3 | 16.7 | 1060.3 | 1.239
303.15 K, m1 = 4.5 | 19.4 | 1087.7 | 1.422
303.15 K, m1 = 6 | – | 1113.1 | 1.713
303.15 K, m1 = 8 | 19.7 | 1145.4 | 2.486
303.15 K, m1 = 11 | 16.7 | 1189.3 | 3.812
303.15 K, m1 = 14 | 13.1 | 1228.9 | 6.073
303.15 K, m1 = 17.8 | 9.61 | 1274.6 | 11.54
308.15 K, m1 = 0.5 | 4.99 | 1006.6 | 0.782
308.15 K, m1 = 1 | 8.7 | – | 0.834
308.15 K, m1 = 2 | 14.4 | 1038.7 | 0.941
308.15 K, m1 = 3 | 18.2 | 1058.7 | 1.083
308.15 K, m1 = 4.5 | – | 1085.9 | 1.28
308.15 K, m1 = 6 | – | 1111.5 | 1.532
308.15 K, m1 = 8 | – | 1143.9 | 2.256
308.15 K, m1 = 11 | 18.3 | 1187.8 | 3.407
308.15 K, m1 = 14 | 14.5 | 1227.1 | 5.332
308.15 K, m1 = 17.8 | 10.9 | 1272.8 | 10.46
313.15 K, m1 = 0.5 | 5.43 | 1005.1 | 0.722
313.15 K, m1 = 1 | 9.45 | 1015.8 | 0.774
313.15 K, m1 = 2 | 15.6 | – | 0.866
313.15 K, m1 = 3 | 19.7 | 1056.9 | 0.977
313.15 K, m1 = 4.5 | – | 1084.4 | 1.177
313.15 K, m1 = 6 | – | 1110.1 | 1.406
313.15 K, m1 = 8 | – | 1142.3 | 2.071
313.15 K, m1 = 11 | 20 | 1186.1 | 3.091
313.15 K, m1 = 14 | 16 | 1225.3 | 4.812
313.15 K, m1 = 17.8 | 12.3 | 1270.7 | 9.741
318.15 K, m1 = 0.5 | 5.85 | 1003.5 | 0.668
318.15 K, m1 = 1 | 10.2 | – | 0.714
318.15 K, m1 = 2 | 16.8 | 1035.2 | 0.802
318.15 K, m1 = 3 | – | 1055.5 | 0.91
318.15 K, m1 = 4.5 | – | 1083 | 1.076
318.15 K, m1 = 6 | – | 1108.4 | 1.293
318.15 K, m1 = 8 | – | 1140.7 | 1.919
318.15 K, m1 = 11 | – | 1184.3 | 2.869
318.15 K, m1 = 14 | 17.5 | 1223.5 | 4.412
318.15 K, m1 = 17.8 | 13.6 | 1268.9 | 8.984
323.15 K, m1 = 0.5 | 6.28 | 1002.2 | 0.625
323.15 K, m1 = 1 | 11 | 1012.5 | 0.665
323.15 K, m1 = 2 | 18.1 | 1033.8 | 0.747
323.15 K, m1 = 3 | – | – | 0.859
323.15 K, m1 = 4.5 | – | 1081.1 | 1.003
323.15 K, m1 = 6 | – | 1106.4 | 1.194
323.15 K, m1 = 8 | – | 1138.8 | 1.742
323.15 K, m1 = 11 | – | 1182.6 | 2.69
323.15 K, m1 = 14 | 19.1 | 1221.8 | 4.123
323.15 K, m1 = 17.8 | 15.1 | 1266.9 | 8.265
